The values that follow are results of earlier work, collected in US7892838B2, “Method for the in vivo modification of the synthesis activity of a metabolite by means of the modification of a gene the activity of which is not the original activity” (Institut Pasteur, priority 2003, dated 2011).

The subject of the data set is HIV (human immunodeficiency virus).

`OC[C@@H]1CC[C@H](n2cnc3c(O)ncnc32)O1` [ddI, 2′,3′-dideoxyinosine]: the “inhibition of the replication of HIV” value is “effectively inhibit the replication of HIV”.

With `Nc1ncnc2c1ncn2[C@H]1CC[C@@H](CO)O1` [ddA, 2′,3′-dideoxyadenosine], the “inhibition of the replication of HIV” value was “effectively inhibit the replication of HIV”.
